Measured values from PubChem BioAssay AID2060901 (Molecular Pharmacology Branch, DTP, NCI, 2025).

System: 422866-222-R5-J1-PDC complex spheroids viability
Experiment: Anticancer human tumor 422866-222-R5-J1-PDC patient-derived pancreatic adenocarcinoma cell line growth inhibition [RAS]
Conditions: for IC50: curve of first compound; for viability, T/C: stronger effect = lower value
Text: RAS pathway inhibitors in Combinations in Complex Spheroids
A high-throughput screen of multi-cell type tumor spheroids was designed to identify active combinations of RAS pathway inhibitors and targeted small molecules. Complex spheroids include a stromal component modeled by human endothelial cells (HUVEC) and fibroblasts modeled by human mesenchymal stem cells (MSCs). The concentration ranges selected for each drug and investigational agent were based upon clinically achievable concentrations if the clinical Cmax of the agent was known.
Compounds. The drugs and investigational agents: abemaciclib (NSC768073), cobimetinib (NSC768068), divarasib (GDC6063, NSC841802), docetaxel (NSC628503), GDC-1971 (RLY-1971, NSC841576), gemcitabine (NSC613327), inavolisib (NSC800729), ipatasertib (NSC767898), KB-0742 (NSC834161), MRTX-1133 (NSC836407), osimertinib (NSC779217), RMC-4630 (NSC839698), RMC-6236 (NSC851965), RMC-6291 (NSC852671), Ro-3306 (NSC812927), sapanisertib (NSC764658), SN-38 (NSC673596), staurosporine (NSC755774), SY5609 (NSC837396), and tovorafenib (DAY101, NSC766906), were obtained from the National Cancer Institute (NCI) Developmental Therapeutics Program Chemical Repository. The FDA-approved anticancer drug set is available from the NCI Developmental Therapeutics Program. […] The stock solutions were prepared in dimethyl sulfoxide (DMSO, Sigma-Aldrich, St. Louis, MO, cat. D2650) at 800-fold the tested concentration and stored at -70 degrees C prior to their use. All drugs and investigational agents were tested over a range starting from a high concentration at or near the clinical Cmax and decreasing in half-log increments. If the clinical Cmax for an agent had not been determined, the highest concentration tested was 10 microM.
Cell Culture. All cells were maintained in an incubator at 37 degrees C and 5% CO2 with 95% humidity. The PDC lines were cultured according to standard operating procedures established by the NCI PDMR. All PDCs were thawed and cultured in Matrigel-coated flasks prepared with a working solution of 1X Ham's F-12 nutrient mix, without supplementation (Invitrogen, Waltham, MA, cat. 11765054), 100 U/mL penicillin-streptomycin (Invitrogen, cat. 15140122), and 2.5% Matrigel (Corning Inc., Corning, NY, cat. 354248) for the first three passages. The 362531-283-R-J2-PDC and 782815-120-R-J1-PDC lines were cultured in 6C/Colon 1B media, which includes advanced DMEM/F-12 (Thermo Fisher Scientific, cat. 12634028), 10 mM HEPES (Thermo Fisher Scientific, cat. 15630080), 1X GlutaMAX supplement (Thermo Fisher Scientific, cat. 35050061), 0.1 mg/mL primocin (InvivoGen, San Diego, CA, cat. ant-pm-2), 10% defined fetal bovine serum, heat inactivated (HyClone Laboratories Inc., Logan, UT, cat. SH30070.03HI), 50% L-WRN conditioned media (ATCC, cat. CRL-3276), 1.25 mM N-Acetyl-L-cysteine (Sigma-Aldrich, cat. A9165), 10 mM nicotinamide (Sigma-Aldrich, cat. N0636), 1X B-27 supplement (Thermo Fisher Scientific, cat. 17504044), 1X N-2 supplement (Thermo Fisher Scientific, cat. 17502048), 50 ng/mL human EGF (Thermo Fisher Scientific, cat. PHG0311), and 10 microM Y-27632 dihydrochloride (Tocris Bioscience, cat. 1254). The K12877-001-R-J1-PDC line was cultured in 6I media, which includes all 6C/Colon 1B media plus 10 ng/mL human FGF-10 (PeproTech, cat. 100-26), 1 ng/mL human FGF-2 (PeproTech, cat. 100-18B), 1 µM prostaglandin E2 (Tocris Bioscience, cat. 2296), […] hydrocortisone (Sigma-Aldrich, cat. H4001), and […] bovine insulin (Sigma-Aldrich, cat. I6634). The K86415-001-R-J1-PDC line was cultured in 6D media, which includes all 6C/Colon 1B media components minus the L-WRN conditioned media. The 485176-168-R4-J1-PDC was cultured in PANC media, which includes all 6C/Colon 1B media plus 100 ng/mL human FGF-10 (PeproTech, cat. 100-26), 500 nM SB-431542 (Selleckchem, cat. S1067), and 10 nM gastrin (Tocris Bioscience, cat. 3006). […]
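Further: spheroids exposed to compounds for 7 days.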
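Wherever viability, T/C is given: 100% = DMSO vehicle control viability.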

CC(Nc1ccc2c(c1)OCCn1cc(N3C(=O)OCC3C(F)F)nc1-2)C(N)=O (configuration not stated) + C#Cc1c(F)ccc2cc(O)cc(-c3ncc4c(N5CC6CCC(C5)N6)nc(OCC56CCCN5CC(F)C6)nc4c3F)c12
IC50 (second compound 0.0316 µM): 93.5 nM
IC50 (second compound 0.1 µM): 81.5 nM
IC50 (second compound 0.316 µM): 33.4 nM
IC50 (second compound 1 µM): < 31.6 nM
IC50 (second compound 3.16 µM): < 31.6 nM
IC50 (second compound 10 µM): < 31.6 nM
viability, T/C (second compound 0.0316 µM, first compound 0.0316 µM): 77%
viability, T/C (second compound 0.0316 µM, first compound 0.1 µM): 46.7%
viability, T/C (second compound 0.0316 µM, first compound 0.316 µM): 33.1%
viability, T/C (second compound 0.0316 µM, first compound 1 µM): 37.9%
viability, T/C (second compound 0.0316 µM, first compound 3.16 µM): 26.1%
viability, T/C (second compound 0.0316 µM, first compound 10 µM): 22.2%
viability, T/C (second compound 0.1 µM, first compound 0.0316 µM): 73.3%
viability, T/C (second compound 0.1 µM, first compound 0.1 µM): 44.8%
viability, T/C (second compound 0.1 µM, first compound 0.316 µM): 30.9%
viability, T/C (second compound 0.1 µM, first compound 1 µM): 24.7%
viability, T/C (second compound 0.1 µM, first compound 3.16 µM): 23%
viability, T/C (second compound 0.1 µM, first compound 10 µM): 19.9%
viability, T/C (second compound 0.316 µM, first compound 0.0316 µM): 50.6%
viability, T/C (second compound 0.316 µM, first compound 0.1 µM): 38.6%
viability, T/C (second compound 0.316 µM, first compound 0.316 µM): 29.8%
viability, T/C (second compound 0.316 µM, first compound 1 µM): 21.6%
viability, T/C (second compound 0.316 µM, first compound 3.16 µM): 19%
viability, T/C (second compound 0.316 µM, first compound 10 µM): 18.7%
viability, T/C (second compound 1 µM, first compound 0.0316 µM): 37.3%
viability, T/C (second compound 1 µM, first compound 0.1 µM): 26.5%
viability, T/C (second compound 1 µM, first compound 0.316 µM): 22.5%
viability, T/C (second compound 1 µM, first compound 1 µM): 14.5%
viability, T/C (second compound 1 µM, first compound 3.16 µM): 13.6%
viability, T/C (second compound 1 µM, first compound 10 µM): 12.7%
viability, T/C (second compound 3.16 µM, first compound 0.0316 µM): 22.2%
viability, T/C (second compound 3.16 µM, first compound 0.1 µM): 19.2%
viability, T/C (second compound 3.16 µM, first compound 0.316 µM): 13%
viability, T/C (second compound 3.16 µM, first compound 1 µM): 10.5%
viability, T/C (second compound 3.16 µM, first compound 3.16 µM): 9.41%
viability, T/C (second compound 3.16 µM, first compound 10 µM): 9.38%
viability, T/C (second compound 10 µM, first compound 0.0316 µM): 13.7%
viability, T/C (second compound 10 µM, first compound 0.1 µM): 11.8%
viability, T/C (second compound 10 µM, first compound 0.316 µM): 8.74%
viability, T/C (second compound 10 µM, first compound 1 µM): 6.04%
viability, T/C (second compound 10 µM, first compound 3.16 µM): 7.1%
viability, T/C (second compound 10 µM, first compound 10 µM): 7.04%
